Laboratory results published in patent publication US10604535B2, “Compounds, compositions and methods” (Denali Therapeutics Inc., priority 2016, dated 2020).
Read-outs that look alike come from different tables or passages of the source.

Assays:
[1] = system: FADD-deficient Jurkat cells; assay: Cellular necroptosis assay (human TNFα-induced necrosis, CellTiter-Glo); type: cell-based; conditions: Homo sapiens, Jurkat, 48 h, TNFα 10 ng/mL, read-out: Cell IC50
[2] = male, Sprague-Dawley Crl:CD(SD), in vivo, iv
Method: (§1) The protein binding in plasma was determined using a Rapid Equilibrium Dialysis Device (Thermo Scientific RED Device) or 96-well dialyzer apparatus (HTDialysis LLC). […] If required, plasma samples were pre-incubated (2 hours at 37° C.) with diisopropyl fluorophosphate (DFP) at the final concentration of 100 μM to prevent compound degradation due to amide hydrolysis. Appropriate volumes of spiked samples along with blank phosphate buffer were added to either device and incubated at 37° C. for a total of 5 hours with agitation at 500 rpm. Following incubation, an equal aliquot of dialysed matrix (plasma or buffer) is added to an equal volume of the opposite blank matrix such that the volume of buffer to plasma are equal. Mixed matrix samples were extracted by protein precipitation using acetonitrile containing the appropriate IS. Samples were then centrifuged for 10 min at 2800 rpm. Supernatants were collected and diluted and then injected on to an HPLC-MS/MS or UPLC-MS/MS system. Samples were analyzed by monitoring the appropriate parent/daughter ion transitions for the test and control compounds. The peak area ratios were used to measure test item concentrations. The fraction unbound (Afu) was determined as the ratio of the peak area ratio in buffer divided by the peak area ratio in plasma.
(§2) The PK properties of test articles were determined in male Sprague-Dawley Crl:CD(SD) rats, male Beagle dogs and male cynomolgus monkeys. Studies were conducted to the highest standards of animal welfare in accordance with national legislation and under approval of the internal animal care and use committees.
(§3) Compounds were administered by IV bolus to animals following an overnight fast. […] The formulations were administered at dose volumes ranging from 0.5-2 mL/kg. The IV dose ranged from 0.5-1 mg/kg.
(§4) Following dose administration, 8-9 serial blood samples were collected over 24 hours. Samples were mixed with anticoagulant and placed on wet ice prior to processing. Plasma was harvested following centrifugation, extracted using protein precipitation with acetonitrile containing IS. The processed supernatant was analyzed using UPLC or LC-MS/MS using specific parent/daughter ion pairs for the test article and IS. Plasma concentrations were determined using a calibration curve prepared using known concentrations of analyte. Pharmacokinetic parameters utilizing measured concentrations were calculated using Phoenix WinNonlin. The unbound plasma clearance was calculated as the ratio of the total body clearance divided by the fraction unbound in plasma.

[3] = male, Beagle, in vivo, iv
Method: as §1
The PK properties of test articles were determined in male Sprague-Dawley Crl:CD(SD) rats, male Beagle dogs and male cynomolgus monkeys. […]
Following dose administration, 8-9 serial blood samples were collected over 24 hours. […] The processed supernatant was analyzed using UPLC or LC-MS/MS using specific parent/daughter ion pairs for the test article and IS. Plasma concentrations were determined using a calibration curve prepared using known concentrations of analyte. Pharmacokinetic parameters utilizing measured concentrations were calculated using Phoenix WinNonlin. The unbound plasma clearance was calculated as the ratio of the total body clearance divided by the fraction unbound in plasma.

TNF/zVAD = conditions: 30 mg/kg, from Table 2 of WO 2014/125444; cited from earlier work
[4] = system: human cryopreserved hepatocytes; assay: Metabolic stability (hepatocytes); conditions: for clearance as % of liver blood flow: corresponding to human CLhep; for Human hepatocyte CLhep Avg: human cryopreserved hepatocytes
Method: (§5) The metabolic stability of compounds was evaluated in human cryopreserved hepatocytes (BioreclamationlVT, NY, USA) in duplicate. Test articles (or controls) were added to a 24-well incubation plate (Becton Dickinson Labware, USA) containing 0.5×10^6 hepatocytes/mL in suspension. The plate was held at 37° C. and agitated with constant orbital shaking (orbital speed at 350 rpm). At each time point (0, 5, 10, 15, 20, 30, 45, 60, 90, 120, 150 and 180 min) a Tecan Evo robot aspirated 50 μL of the incubation mixture and 100 μL of acetonitrile containing internal standard to quench the reaction. […] Samples were centrifuged (3000 rpm for 10 minutes) and the plate sealed prior to injection onto an LC-MS/MS system.
(§6) The appropriate parent/daughter ions were monitored for the test article and IS with the LC-MS/MS system. The intrinsic clearance (Clint; expressed μL/min/million cells) was determined from the first order elimination constant (k, min^−1) of test article decay and the volume of the incubation. […] The intrinsic organ CL was then converted to the hepatic clearance (CLhep) using the well-stirred model as shown below, where Qh is human hepatic blood flow.
(§7) Hepatic clearance is expressed as mL/min/kg. The hepatic clearance relates to the flow of blood through the liver that is completely cleared of the compound.

MDCKII-MDR1 cell line = assay: MDCKII-MDR1 permeability, efflux ratio; type: in vitro ADME; conditions: MDCKII-MDR1, 3 μM, 90 min
Method: The blood brain barrier (BBB) separates circulating blood from the extracellular fluid of the central nervous system (CNS). The passive membrane permeability (Papp) and the P-gp (P-glycoprotein) substrate efflux potential were determined using the MDCKII-MDR1 cell line as an in vitro model of the effective permeability of a compound through the BBB. A bidirectional assay (Apical to Basolateral (A→B) and Basolateral to Apical (B→A)), in the absence and in the presence of GF120918 (a P-gp inhibitor) was conducted using pre-plated MDCKII-MDR1 cells (Corning HTS Transwell-96) obtained from SOLVO Biotechnology. The assay was run at 3 μM for 90 min (minutes) in triplicate using a HBSS+12.5 mM HEPES pH 7.4 transport buffer. Following incubation of samples from donor and receiver, wells were removed and measured by LC-MS/MS. Samples were extracted by protein precipitation with acetonitrile containing an appropriate internal standard (IS) having a known mass and molecular weight. The precipitate was centrifuged for 10 min at 3000 rpm (revolutions per minute). The supernatants were then collected, diluted if necessary, and injected on to the LC-MS/MS system. […] Papp (apparent permeability expressed in nm/sec [nanometer/second]) values were calculated according to the following equation: […]
Where dQ/dt is the permeability rate, C0 is the initial concentration in the donor solution (expressed as IS ratio), A and B are the surface areas of the filter (the surface area of the cell monolayer).
Monolayer efflux ratios (ER) were derived using the following equation: […]

GST-hRIPK1 (8-327) = GST-hRIPK1 (8-327) (Homo sapiens (Human), UniProt Q13546); assay: Fluorescent Polarization Binding (FP Binding) assay
Chain of GST-hRIPK1 (8-327) (Q13546 8-327): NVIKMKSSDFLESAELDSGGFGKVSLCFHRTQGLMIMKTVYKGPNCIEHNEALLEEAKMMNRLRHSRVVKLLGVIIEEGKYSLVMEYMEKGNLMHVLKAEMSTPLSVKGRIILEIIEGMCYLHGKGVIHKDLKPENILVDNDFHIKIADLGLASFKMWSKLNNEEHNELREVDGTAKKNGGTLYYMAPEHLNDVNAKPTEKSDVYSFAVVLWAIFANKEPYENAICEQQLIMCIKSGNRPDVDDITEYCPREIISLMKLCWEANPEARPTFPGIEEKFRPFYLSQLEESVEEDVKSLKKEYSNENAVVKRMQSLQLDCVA

[5] = system: human cryopreserved hepatocytes
Method: as §5, §6, §7

[6] = male, cynomolgus monkey, in vivo, iv
Method: as §1, §2, §3, §4

| SMILES | Rat unbound CL [2] | Dog unbound CL [3] | Human hepatocyte CLhep Avg [4] | Human hepatocyte CLhep Avg [5] | further results |
| --- | --- | --- | --- | --- | --- |
| CN1C(=O)[C@@H](NC(=O)c2nnc(Cc3ccccc3)[nH]2)COc2ccccc21 [A, reference compound] | 77 mL/min/kg | 240 mL/min/kg | 6.8 mL/min/kg | – | IC50 [1]: 0.5 nM; inhibition of temperature loss (TNF/zVAD): 93%; clearance as % of liver blood flow [4]: approximately 32% |
| CN1C(=O)[C@@H](NC(=O)c2nnc(Cc3ccccc3)o2)COc2ccccc21 [B, reference compound] | – | – | 14 mL/min/kg | – | IC50 [1]: 0.3 nM; ER MDR1 (MDCKII-MDR1 cell line): 1.0 |
| CN1C(=O)[C@@H](NC(=O)c2cc(C3(c4ccccc4)CC3)on2)COc2ccccc21 [Example 8, (S)—N-(5-methyl-4-oxo-2,3,4,5-tetrahydrobenzo[b][1,4]oxazepin-3-yl)-5-(1-phenylcyclopropyl)isoxazole-3-carboxamide] | 3700 mL/min/kg | – | – | 19 mL/min/kg | IC50 (GST-hRIPK1 (8-327)): 0.1 to 1000 nM |
| CN1C(=O)[C@@H](NC(=O)c2cc(Cc3ccccc3)on2)CC2(CC2)c2ccccc21 [Example 9, (S)-5-benzyl-N-(1-methyl-2-oxo-1,2,3,4-tetrahydrospiro[benzo[b]azepine-5,1′-cyclopropan]-3-yl)isoxazole-3-carboxamide] | – | – | – | 19 mL/min/kg | IC50 (GST-hRIPK1 (8-327)): 0.1 to 1000 nM |
| CN1C(=O)[C@@H](NC(=O)c2nnc(Cc3ccccc3)[nH]2)COc2cccnc21 [Example 42, (S)-5-benzyl-N-(5-methyl-4-oxo-2,3,4,5-tetrahydropyrido[3,2-b][1,4]oxazepin-3-yl)-4H-1,2,4-triazole-3-carboxamide] | 22 mL/min/kg | 64 mL/min/kg | 0.8 mL/min/kg | – | Cyno unbound CL [6]: 42 mL/min/kg; clearance as % of liver blood flow [4]: less than 4% |
| CN1C(=O)[C@@H](NC(=O)c2nnc(C3(c4ccccc4)CC3)o2)COc2cccnc21 [Example 66, (S)—N-(5-methyl-4-oxo-2,3,4,5-tetrahydropyrido[3,2-b][1,4]oxazepin-3-yl)-5-(1-phenylcyclopropyl)-1,3,4-oxadiazole-2-carboxamide] | – | 36 mL/min/kg | 6.3 mL/min/kg | – | – |
| CN1C(=O)[C@@H](NC(=O)c2ncn(Cc3cccc(C#N)c3)n2)COc2cccnc21 [Example 171, (S)-1-(3-cyanobenzyl)-N-(5-methyl-4-oxo-2,3,4,5-tetrahydropyrido[3,2-b][1,4]oxazepin-3-yl)-1H-1,2,4-triazole-3-carboxamide] | 32 mL/min/kg | – | – | 5.1 mL/min/kg | – |
